According to article PMC5762315, “Inhibition of polo-like kinase 4 (PLK4): a new therapeutic option for rhabdoid tumors and pediatric medulloblastoma” (Oncotarget, 2017):
Several values for one entry are separate records, joined by “and”; a condition that tells them apart may be missing. Equal entries are not always repeated.

Assays:
Experiment in all cases: LanthaScreen Eu Kinase Binding Assay, panel of 486 biochemical kinase assays
various kinases [1] = molecular target: various kinases (Homo sapiens, UniProt Q9UBE8); details: NLK
various kinases [2] = molecular target: various kinases (Homo sapiens, UniProt Q8TD08); details: MAPK15 (ERK7)
various kinases [3] = molecular target: various kinases (Homo sapiens, UniProt Q96GX5); details: MASTL
various kinases [4] = molecular target: various kinases (Homo sapiens, UniProt Q99558); details: MAP3K14 (NIK)
various kinases [5] = molecular target: various kinases (Homo sapiens, UniProt Q13705); details: ACVR2B
various kinases [6] = molecular target: various kinases (Homo sapiens, UniProt Q16513); details: kinase PKN2 (PRK2); LanthaScreen Binding
various kinases [7] = molecular target: various kinases (Homo sapiens, UniProt Q9Y2K2); details: kinase SIK3; LanthaScreen Binding
various kinases [8] = molecular target: various kinases (Homo sapiens, UniProt P10721, D816V); details: KIT D816V
various kinases [9] = molecular target: various kinases (Homo sapiens, UniProt P45985); details: MAP2K4 (MEK4)
various kinases [10] = molecular target: T1, various kinases (Homo sapiens, UniProt P42680); details: kinase TEC; LanthaScreen Binding
T1 sequence (P42680 1-631): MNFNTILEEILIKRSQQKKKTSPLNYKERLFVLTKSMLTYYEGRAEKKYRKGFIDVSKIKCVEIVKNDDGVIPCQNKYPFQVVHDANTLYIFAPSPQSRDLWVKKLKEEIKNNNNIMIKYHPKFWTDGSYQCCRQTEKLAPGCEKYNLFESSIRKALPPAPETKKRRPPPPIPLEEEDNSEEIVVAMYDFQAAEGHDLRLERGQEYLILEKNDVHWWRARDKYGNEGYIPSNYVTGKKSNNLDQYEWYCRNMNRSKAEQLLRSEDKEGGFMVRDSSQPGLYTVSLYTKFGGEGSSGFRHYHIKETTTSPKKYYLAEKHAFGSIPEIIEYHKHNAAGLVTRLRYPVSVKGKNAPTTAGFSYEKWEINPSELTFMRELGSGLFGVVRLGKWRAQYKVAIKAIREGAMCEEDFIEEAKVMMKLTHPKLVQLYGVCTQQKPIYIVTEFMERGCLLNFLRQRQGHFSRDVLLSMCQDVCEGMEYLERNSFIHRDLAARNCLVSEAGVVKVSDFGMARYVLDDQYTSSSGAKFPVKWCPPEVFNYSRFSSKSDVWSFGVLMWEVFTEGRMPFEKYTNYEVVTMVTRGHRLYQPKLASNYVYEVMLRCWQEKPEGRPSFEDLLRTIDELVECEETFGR

various kinases [11] = molecular target: various kinases (Homo sapiens, UniProt O00238); details: BMPR1B (ALK6)
various kinases [12] = molecular target: various kinases (Homo sapiens, UniProt Q9Y616); details: IRAK3
various kinases [13] = molecular target: T2, various kinases (Homo sapiens, UniProt Q99640); details: kinase PKMYT1; LanthaScreen Binding
T2 sequence (Q99640 1-499): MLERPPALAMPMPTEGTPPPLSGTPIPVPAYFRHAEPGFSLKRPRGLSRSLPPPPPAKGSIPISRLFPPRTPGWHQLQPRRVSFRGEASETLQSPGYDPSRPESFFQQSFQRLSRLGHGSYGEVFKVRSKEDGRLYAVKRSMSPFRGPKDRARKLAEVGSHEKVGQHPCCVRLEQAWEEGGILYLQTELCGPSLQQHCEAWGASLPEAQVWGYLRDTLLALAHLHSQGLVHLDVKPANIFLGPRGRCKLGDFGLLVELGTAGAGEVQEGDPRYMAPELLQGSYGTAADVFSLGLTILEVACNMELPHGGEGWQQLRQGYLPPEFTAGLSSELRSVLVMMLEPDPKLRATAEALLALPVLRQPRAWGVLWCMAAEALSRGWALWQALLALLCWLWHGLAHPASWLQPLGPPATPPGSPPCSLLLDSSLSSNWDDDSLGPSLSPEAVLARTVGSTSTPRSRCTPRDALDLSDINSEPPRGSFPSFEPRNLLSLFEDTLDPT

various kinases [14] = molecular target: various kinases (Homo sapiens, UniProt Q13873); details: BMPR2
various kinases [15] = molecular target: various kinases (Homo sapiens, UniProt Q16584); details: MAP3K11 (MLK3)
various kinases [16] = molecular target: various kinases (Homo sapiens, UniProt P10721, T670E); details: KIT T670E
various kinases [17] = molecular target: T3, various kinases (Homo sapiens, UniProt O94768); details: kinase STK17B (DRAK2); LanthaScreen Binding
T3 sequence (O94768 1-372): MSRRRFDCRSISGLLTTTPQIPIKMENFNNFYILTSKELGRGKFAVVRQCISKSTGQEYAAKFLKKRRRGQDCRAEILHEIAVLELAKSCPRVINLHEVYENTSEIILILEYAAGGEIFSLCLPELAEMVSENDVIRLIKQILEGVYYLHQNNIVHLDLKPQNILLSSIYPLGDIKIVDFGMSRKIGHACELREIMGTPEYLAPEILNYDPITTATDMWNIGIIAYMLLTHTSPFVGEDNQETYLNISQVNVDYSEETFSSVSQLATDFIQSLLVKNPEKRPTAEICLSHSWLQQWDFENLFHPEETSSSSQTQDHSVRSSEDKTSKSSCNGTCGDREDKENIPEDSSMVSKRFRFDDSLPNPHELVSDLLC

various kinases [18] = molecular target: various kinases (Homo sapiens, UniProt P27037); details: ACVR2A
various kinases [19] = molecular target: various kinases (Homo sapiens, UniProt P10721, V654A); details: KIT V654A
various kinases [20] = molecular target: various kinases (Homo sapiens, UniProt Q9Y2U5); details: MAP3K2 (MEKK2)

Sequence of various kinases (Homo sapiens, UniProt Q9Y2K2) (Q9Y2K2 whole entry): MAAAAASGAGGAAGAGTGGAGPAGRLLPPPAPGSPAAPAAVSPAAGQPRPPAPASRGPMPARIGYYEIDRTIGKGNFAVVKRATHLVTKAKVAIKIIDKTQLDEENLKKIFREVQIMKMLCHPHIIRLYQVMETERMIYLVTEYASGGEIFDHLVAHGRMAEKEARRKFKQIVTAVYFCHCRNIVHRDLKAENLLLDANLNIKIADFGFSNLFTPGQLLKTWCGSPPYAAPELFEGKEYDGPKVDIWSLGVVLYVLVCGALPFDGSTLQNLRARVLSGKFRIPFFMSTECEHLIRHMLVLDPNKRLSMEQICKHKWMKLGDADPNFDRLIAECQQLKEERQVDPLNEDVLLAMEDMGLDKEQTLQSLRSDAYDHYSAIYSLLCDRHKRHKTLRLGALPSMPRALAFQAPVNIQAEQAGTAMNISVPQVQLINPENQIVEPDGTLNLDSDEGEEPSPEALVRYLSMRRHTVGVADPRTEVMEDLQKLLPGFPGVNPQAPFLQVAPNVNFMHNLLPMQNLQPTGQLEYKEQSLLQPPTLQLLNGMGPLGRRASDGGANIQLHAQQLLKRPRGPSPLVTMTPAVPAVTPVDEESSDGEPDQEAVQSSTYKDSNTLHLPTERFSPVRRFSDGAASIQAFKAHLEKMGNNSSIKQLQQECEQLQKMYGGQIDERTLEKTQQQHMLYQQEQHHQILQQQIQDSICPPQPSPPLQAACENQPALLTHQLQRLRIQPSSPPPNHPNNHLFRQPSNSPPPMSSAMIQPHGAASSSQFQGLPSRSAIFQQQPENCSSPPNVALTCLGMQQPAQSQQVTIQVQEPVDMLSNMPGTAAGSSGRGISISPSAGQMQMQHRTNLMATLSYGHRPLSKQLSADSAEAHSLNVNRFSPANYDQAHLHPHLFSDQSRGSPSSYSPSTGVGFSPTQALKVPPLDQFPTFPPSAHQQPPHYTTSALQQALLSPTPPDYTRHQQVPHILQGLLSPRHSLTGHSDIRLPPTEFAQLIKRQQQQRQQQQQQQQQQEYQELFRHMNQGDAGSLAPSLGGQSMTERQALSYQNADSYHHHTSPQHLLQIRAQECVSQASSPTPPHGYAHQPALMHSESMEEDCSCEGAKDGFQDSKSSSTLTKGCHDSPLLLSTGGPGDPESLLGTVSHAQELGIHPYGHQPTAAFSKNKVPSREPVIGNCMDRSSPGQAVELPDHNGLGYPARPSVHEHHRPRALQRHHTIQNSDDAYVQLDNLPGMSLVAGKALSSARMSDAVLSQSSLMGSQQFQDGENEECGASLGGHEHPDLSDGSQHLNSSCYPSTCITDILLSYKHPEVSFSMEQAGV
Sequence of various kinases (Homo sapiens, UniProt Q16513) (Q16513 whole entry): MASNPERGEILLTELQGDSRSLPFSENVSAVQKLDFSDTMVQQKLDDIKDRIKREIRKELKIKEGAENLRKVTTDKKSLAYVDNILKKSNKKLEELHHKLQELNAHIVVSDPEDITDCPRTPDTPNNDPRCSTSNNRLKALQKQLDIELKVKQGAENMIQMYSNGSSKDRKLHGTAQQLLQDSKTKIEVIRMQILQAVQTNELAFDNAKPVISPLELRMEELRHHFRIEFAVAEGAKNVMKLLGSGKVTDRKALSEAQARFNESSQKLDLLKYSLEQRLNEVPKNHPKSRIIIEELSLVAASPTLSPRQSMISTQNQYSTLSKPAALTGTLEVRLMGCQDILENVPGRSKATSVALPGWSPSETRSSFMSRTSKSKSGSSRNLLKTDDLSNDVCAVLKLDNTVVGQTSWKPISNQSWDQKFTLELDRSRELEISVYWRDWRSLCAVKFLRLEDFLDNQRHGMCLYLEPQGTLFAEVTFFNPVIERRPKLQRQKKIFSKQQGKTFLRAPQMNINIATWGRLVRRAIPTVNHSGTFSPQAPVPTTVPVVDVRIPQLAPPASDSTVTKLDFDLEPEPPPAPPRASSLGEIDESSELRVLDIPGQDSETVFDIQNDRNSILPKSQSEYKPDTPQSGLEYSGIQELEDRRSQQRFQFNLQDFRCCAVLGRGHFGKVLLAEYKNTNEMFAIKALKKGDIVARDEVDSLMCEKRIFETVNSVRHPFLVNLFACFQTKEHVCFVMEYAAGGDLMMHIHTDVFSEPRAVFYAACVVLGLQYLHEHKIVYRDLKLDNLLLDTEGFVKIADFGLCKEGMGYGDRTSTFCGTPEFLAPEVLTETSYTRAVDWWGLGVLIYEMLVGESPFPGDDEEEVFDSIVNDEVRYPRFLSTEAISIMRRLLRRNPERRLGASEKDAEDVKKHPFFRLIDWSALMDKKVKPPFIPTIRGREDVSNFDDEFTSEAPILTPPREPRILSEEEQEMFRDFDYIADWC
Sequence of various kinases (Homo sapiens, UniProt Q9UBE8) (Q9UBE8 whole entry): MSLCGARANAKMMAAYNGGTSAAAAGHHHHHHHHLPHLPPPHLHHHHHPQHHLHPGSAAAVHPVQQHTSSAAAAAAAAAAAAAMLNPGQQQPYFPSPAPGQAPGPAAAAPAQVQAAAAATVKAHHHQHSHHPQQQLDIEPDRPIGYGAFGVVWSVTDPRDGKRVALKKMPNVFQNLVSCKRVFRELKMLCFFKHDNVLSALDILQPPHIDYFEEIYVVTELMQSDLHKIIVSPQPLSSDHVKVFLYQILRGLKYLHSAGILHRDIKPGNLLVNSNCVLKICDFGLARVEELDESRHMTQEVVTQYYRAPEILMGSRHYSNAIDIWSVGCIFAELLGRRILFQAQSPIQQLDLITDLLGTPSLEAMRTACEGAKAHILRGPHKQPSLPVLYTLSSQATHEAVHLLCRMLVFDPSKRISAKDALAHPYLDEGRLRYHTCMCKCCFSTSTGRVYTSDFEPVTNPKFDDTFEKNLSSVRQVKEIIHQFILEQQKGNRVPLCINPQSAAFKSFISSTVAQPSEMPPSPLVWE
Sequence of various kinases (Homo sapiens, UniProt Q8TD08) (Q8TD08 whole entry): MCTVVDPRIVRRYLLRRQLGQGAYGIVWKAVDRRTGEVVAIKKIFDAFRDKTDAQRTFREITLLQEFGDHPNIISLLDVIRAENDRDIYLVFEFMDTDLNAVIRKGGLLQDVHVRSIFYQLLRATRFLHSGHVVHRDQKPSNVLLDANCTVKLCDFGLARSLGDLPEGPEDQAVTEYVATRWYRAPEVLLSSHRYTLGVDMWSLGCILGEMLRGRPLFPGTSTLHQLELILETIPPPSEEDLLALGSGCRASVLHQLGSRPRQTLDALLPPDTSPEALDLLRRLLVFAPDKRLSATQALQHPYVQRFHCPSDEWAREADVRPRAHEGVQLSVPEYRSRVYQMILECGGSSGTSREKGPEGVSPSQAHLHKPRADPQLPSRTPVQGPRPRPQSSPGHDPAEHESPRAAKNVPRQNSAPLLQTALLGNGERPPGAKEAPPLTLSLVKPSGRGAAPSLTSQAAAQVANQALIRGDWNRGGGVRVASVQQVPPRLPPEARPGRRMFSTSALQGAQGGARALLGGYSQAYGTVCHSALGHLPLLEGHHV
Sequence of various kinases (Homo sapiens, UniProt P27037) (P27037 20-513): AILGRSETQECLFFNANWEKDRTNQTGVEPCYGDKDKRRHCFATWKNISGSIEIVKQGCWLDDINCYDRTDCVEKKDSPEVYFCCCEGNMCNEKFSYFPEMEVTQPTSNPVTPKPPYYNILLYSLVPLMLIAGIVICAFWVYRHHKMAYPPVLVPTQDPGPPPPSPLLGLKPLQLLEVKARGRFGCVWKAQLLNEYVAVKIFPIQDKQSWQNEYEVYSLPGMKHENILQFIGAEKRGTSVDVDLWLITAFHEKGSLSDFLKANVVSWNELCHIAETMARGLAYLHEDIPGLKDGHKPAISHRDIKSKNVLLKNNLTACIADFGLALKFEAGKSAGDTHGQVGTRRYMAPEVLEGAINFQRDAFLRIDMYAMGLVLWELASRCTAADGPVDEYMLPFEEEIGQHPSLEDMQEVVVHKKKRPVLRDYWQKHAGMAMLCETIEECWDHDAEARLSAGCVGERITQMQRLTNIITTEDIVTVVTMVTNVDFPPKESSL
Sequence of various kinases (Homo sapiens, UniProt P10721, T670E) (P10721 26-976 T670E): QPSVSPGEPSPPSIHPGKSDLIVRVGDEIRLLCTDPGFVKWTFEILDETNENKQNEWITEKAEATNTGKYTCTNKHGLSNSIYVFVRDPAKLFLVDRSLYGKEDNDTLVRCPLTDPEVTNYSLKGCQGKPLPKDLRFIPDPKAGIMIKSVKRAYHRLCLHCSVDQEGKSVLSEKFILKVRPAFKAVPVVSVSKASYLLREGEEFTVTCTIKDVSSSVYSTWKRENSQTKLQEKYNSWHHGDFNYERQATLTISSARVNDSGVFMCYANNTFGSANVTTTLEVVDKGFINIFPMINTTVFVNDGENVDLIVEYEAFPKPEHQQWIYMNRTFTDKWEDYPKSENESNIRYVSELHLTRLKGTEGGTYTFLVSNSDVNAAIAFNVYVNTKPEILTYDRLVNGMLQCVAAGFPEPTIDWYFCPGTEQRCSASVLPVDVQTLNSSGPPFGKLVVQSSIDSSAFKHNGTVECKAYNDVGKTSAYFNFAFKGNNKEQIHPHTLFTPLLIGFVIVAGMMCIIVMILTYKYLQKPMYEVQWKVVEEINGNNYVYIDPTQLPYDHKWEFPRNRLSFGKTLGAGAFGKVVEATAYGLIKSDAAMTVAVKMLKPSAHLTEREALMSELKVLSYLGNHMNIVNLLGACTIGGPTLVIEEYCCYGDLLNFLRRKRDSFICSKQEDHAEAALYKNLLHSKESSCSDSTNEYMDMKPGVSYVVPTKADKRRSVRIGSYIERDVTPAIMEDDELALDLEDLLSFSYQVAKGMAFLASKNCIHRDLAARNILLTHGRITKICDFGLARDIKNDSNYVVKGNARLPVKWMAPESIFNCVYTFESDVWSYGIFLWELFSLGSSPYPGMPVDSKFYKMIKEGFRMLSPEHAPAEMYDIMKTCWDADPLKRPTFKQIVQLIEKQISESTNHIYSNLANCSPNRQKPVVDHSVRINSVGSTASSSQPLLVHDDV
Sequence of various kinases (Homo sapiens, UniProt P10721, D816V) (P10721 26-976 D816V): as the sequence (P10721 26-976 T670E) above, with E645T, D791V counted along it
Sequence of various kinases (Homo sapiens, UniProt P10721, V654A) (P10721 26-976 V654A): as the sequence (P10721 26-976 T670E) above, with V629A, E645T counted along it

COc1ccc2c(c1)[C@]1(C[C@H]1c1ccc3c(/C=C/c4ccc(CN5C[C@@H](C)O[C@@H](C)C5)cc4)n[nH]c3c1)C(=O)N2 [CFI-400945]
% Inhibition (various kinases [1]): -9% and -6%
% Inhibition (various kinases [2]): 11% and 8%
% Inhibition (various kinases [3]): 16% and 15%
% Inhibition (various kinases [4]): 0% and 1%
% Inhibition (various kinases [5]): 4% and 0%
% Inhibition Average (various kinases [6]): 50%
% Inhibition Duplicate #1 (various kinases [6]): 48%
% Inhibition Duplicate #2 (various kinases [6]): 51%
% Inhibition Average (various kinases [7]): 5%
% Inhibition Duplicate #1 (various kinases [7]): 10%
% Inhibition Duplicate #2 (various kinases [7]): 1%
% Inhibition (various kinases [8]): -1% and 0%
% Inhibition (various kinases [9]): 7% and 3%
% Inhibition Average (various kinases [10]): -1%
% Inhibition Duplicate #1 (various kinases [10]): 1%
% Inhibition Duplicate #2 (various kinases [10]): -3%
% Inhibition (various kinases [11]): 5% and 8%
% Inhibition (various kinases [12]): 29%
% Inhibition Average (various kinases [13]): 31%
% Inhibition Duplicate #1 (various kinases [13]): 31%
% Inhibition Duplicate #2 (various kinases [13]): 30%
% Inhibition (various kinases [14]): 0% and 2%
% Inhibition (various kinases [15]): 7% and -2%
% Inhibition (various kinases [16]): 9% and 6%
% Inhibition Average (various kinases [17]): 18%
% Inhibition Duplicate #1 (various kinases [17]): 21%
% Inhibition Duplicate #2 (various kinases [17]): 16%
% Inhibition (various kinases [18]): 18% and 15%
% Inhibition (various kinases [19]): 6%
% Inhibition (various kinases [20]): -1% and 4%
